Series [1] concerns human glioblastoma U87 MG cells. Nature of the series: Antitumor efficacy study for systemic delivery, subcutaneous U87 MG tumor. The note with it: controls: free CPT 4.5 mg/kg i.p.; irinotecan 60 mg/kg i.p. Format: in vivo, athymic nude mice. The protocol: A total of 2×10^6 human glioblastoma U87 MG cells were subcutaneously injected into the right shoulder of athymic nude mice (8-9 weeks old). The mice were used for the efficacy study after three to four weeks when the tumor had reached about 190-250 mm^3 in size. […]. Water insoluble free CPT was dissolved/suspended in a mixture of DMSO/ethanol/PEG-400/water (1:1:2:1). CPT (4.5 mg/kg) and irinotecan (60 mg/kg) were administered by intraperitoneal injection, while freshly prepared TT 1 solutions of various doses were administered intravenously by tail vein injection every 4 days for a total of three doses (days 1, 5, and 9). […]. Tumor volumes were measured and recorded every other day. The body weights were measured and recorded every day or every other day. The tumor volume was determined by measuring the tumor in two dimensions with calipers and using the formula “tumor volume=(length×width^2)/2”. Each animal was euthanized once the tumor volume reached the predetermined end point size of 2000 mm^3.

In series [2] the test system is U87 MG human brain cancer cells. The series is described as follows: cells. Conditions: U-87 MG, 48 h.
Protocol: The human brain cancer cell line U87 MG was a generous gift from Dr. Wirtz (ChemBE, JHU). DMEM (Invitrogen) containing 10% fetal bovine serum (FBS, Invitrogen) and 1% antibiotics (Invitrogen) was used for the culture of the U87 MG cells. Cancer cells were incubated at 37° C. in a humidified incubator (Oasis, Caron, Marietta, Ohio, USA) with an atmosphere of 5% CO2. […] U87 MG cells were seeded onto 96-well plates (5000 cells/well) and allowed to attach overnight. […] The stock solutions were then diluted with fresh medium to achieve final CPT concentrations of 0.1, 1, 10, 100, 500, 1000, 5000 and 10000 nM. After dilution, the nanotube-containing media were used to incubate cells immediately. Medium containing the same concentration of free CPT ranging from 0.1 to 10000 nM was also used to incubate the cells, with non-treated cells (solvent only) as the control group. In addition, irinotecan at the concentration of 0.1, 1, 5, 10, 50, 100 and 500 μM was employed as a second control. After 48 h incubation, the cell viability was evaluated using the SRB method according to the manufacturer's protocols (TOX-6, Sigma, St. Louis, Mo.).
For the next series, the system named is HT-29 cells. The note with it: SAPDs 10 mg/kg i.v. days 1, 5, 9, 13; irinotecan 100 mg/kg i.p. days 1, 8, 15. From the text:
Antitumor efficacy study of SAPDs at the same dose on a HT-29 tumor model. […] When the averaged tumor size reached 75-95 mm^3, mice were randomly divided into six groups. […] The tumor volumes and body weights were monitored and recorded every two or three days. The tumor volume was estimated by measuring the length and width with calipers and using the equation “tumor volume=(length×width^2)/2”. Mice were euthanized once the tumor volume reached 1000 mm^3.

For series [3] the following is noted: in vivo; cited from earlier work.

Each structure is given as a SMILES string.

One may read the IC50 as the midpoint of a concentration-inhibition curve. Read a low IC50 as higher potency. Regarding `CCc1c2c(nc3ccc(OC(=O)N4CCC(N5CCCCC5)CC4)cc13)-c1cc3c(c(=O)n1C2)COC(=O)[C@]3(O)CC` [irinotecan, reference compound], the median survival was determined as 27 days in series [1] and 51 days with HT-29 cells. Moreover, in series [2], the IC50 was 6.5 µM. In addition, the “reported MTD” value in series [3] was 100 mg/kg.

The values are drawn from patent US20220211858A1, “TUBULAR SUPRAMOLECULAR POLYMERS” (priority 2019, published 2022).
